Data set [1] can be described thus: In vitro liver microsomal stability, human. The conditions noted are these: 1 μM compound, 500 μg/mL liver microsomes, NADPH. The format is in vitro ADME. (In general: Liver microsomes are a subcellular fraction often used to study metabolism.)
Data set [2] in a line: In vitro liver microsomal stability, mouse. The format is in vitro ADME. The conditions noted are these: 1 μM compound, 500 μg/mL liver microsomes, NADPH.
The subject of a further data set is MDA-MB-436 cells. As to the kind of experiment: In vitro inhibition of MDA-MB-436 cell proliferation (CTG, 10 days). The conditions noted are these: Homo sapiens, MDA-MB-436, 240 h, 10 days incubation, read-out: Inhibitory activity against MDA-MB-436 cells (IC50). The format is cell-based. On the procedure:
MDA-MB-436 cells were seeded in a 96-well low-adsorption plate at 1200 cells/well. After the cells adhered to the wall overnight, the serially diluted compound was added, and the cells were incubated for another 10 days. The ATP level of the cells was then determined by CTG to evaluate the cell growth. The growth inhibition percentages and IC50 of the compounds were calculated compared to the DMSO group.

The nature of data set [3]: In vivo pharmacokinetic experiment in CD-1 mice. To be noted: mouse, plasma, CD-1 female mice; for Vd: read-out: Vdss. As to the method: CD-1 female mice aged 7 to 10 weeks were intravenously administered and orally administered at doses of 1 mg/kg and 10 mg/kg, respectively.
On the day of the experiment, animals in the intravenous group were given the corresponding compound by single injection via the tail vein at an administration volume of 2 mL/kg, and animals in the oral group were given the corresponding compound by single intragastric injection at an administration volume of 10 mL/kg. The animals were weighed before administration, and their administration volume was calculated according to their body weight. […] About […] of whole blood was collected through the orbital venous plexus at each time point and used to prepare plasma for concentration determination by high performance liquid chromatography-tandem mass spectrometry (LC-MS/MS). All animals were suffocated by CO2 after the PK samples were collected at the last time point. The plasma concentrations were processed using a non-compartmental model of Winnolin™ version 8.2 (Pharsight, mountain View, CA) pharmacokinetic software, and the pharmacokinetic parameters were calculated using a linear-log trapezoidal method.

For data set [4], the system named is MDA-MB-436 xenograft tumor. As to the kind of experiment: In vivo efficacy in MDA-MB-436 xenograft tumor model. Also on record: species or system mouse. The conditions noted are these: for Tumor growth inhibition rate: after 28 days. As to the method:
MDA-MB-436 cells were subjected to adherent culture in an L-15 medium containing 10% fetal bovine serum and 1% AA at 37° C. with 5% CO2. The cells were digested with trypsin and routinely passaged twice a week. When cells were maintained in the exponential growth phase with viability greater than 95%, the cells were collected, counted, and inoculated. Each 6- to 8-week-old female BALB/c nude mouse was inoculated with 10×10^6 MDA-MB-436 cells+Matrigel in a volume of 0.2 mL in the right cervicodorsal region. […] The compounds were orally administered once a day, and the tumor volume and body weight of the mice were measured twice a week. After 28 days of administration, the mice were sacrificed. Data were processed using software such as Excel.

Where [5] appears, read: 0 days (start of administration), BALB/c nude mice.
Where [6] appears, read: 28 days, oral once a day, […] day 1-7 and 3 mg/kg day 8-28.
Where [7] appears, read: oral once a day, […] day 1-7 and 3 mg/kg day 8-28.

Broadly, the half-life is how long it takes for the measured level to halve. Broadly, the IC50 is the midpoint of a concentration-inhibition curve. By AUC(0-t) is commonly meant the area under the concentration-time curve up to a stated or last time point. In general, clearance refers to a measure of how efficiently the substance is removed, as volume per time. Read a low clearance as inefficient removal. One may read the Cmax as the maximum level reached in the sampled fluid or tissue. Broadly, the Tmax is the time at which the peak concentration occurs.

Molecules are shown by their SMILES.

With `Cc1nc2ccc(CN3CCN(c4ccc(C(=O)N[C@@H]5C[C@@H]5F)nc4F)CC3)cc2[nH]c1=O` [Compound 2], the half-life at 1 μM in data set [1] turned out to be 3.88 h. For the same compound, the half-life at 1 μM in data set [2] was 5.15 h. For the same compound, the IC50 in the data set with MDA-MB-436 cells was determined as 2.4 nM. Besides, in data set [3] (iv, Injection (1 mg/kg)), the AUC(0-t) is 2120 ng·h/mL, the clearance came to 7.7 mL/min/kg, the half-life is 1.48 h and the Vd worked out at 0.76 L/kg. For the same compound, in data set [3] (Oral administration (10 mg/kg)), the AUC(0-t) came out at 30900 ng·h/mL, the Cmax came out at 10600 ng/mL, the Tmax was determined as 0.5 h and the bioavailability is 146%. This compound also showed a half-life in data set [3] (Oral administration (10 mg/kg)) of 1.71 h.

As for `Cc1nc2ccc(CN3CCN(c4ccc(C(=O)N[C@H]5C[C@H]5F)nc4F)CC3)cc2[nH]c1=O` [Compound 1], the half-life at 1 μM in data set [1] came out at 8.23 h. The Mean tumor volume in data set [4] (setting [5]) was 212 mm^3. Besides, the Mean tumor volume in data set [4] (setting [6]) was 87 mm^3. The “Tumor growth inhibition rate” value in data set [4] (setting [7]) came to 159%. Further, in data set [2], the half-life at 1 μM was 4.88 h. Further, in the data set with MDA-MB-436 cells, the IC50 worked out at 1.6 nM. In data set [3] (iv, Injection (1 mg/kg)), the AUC(0-t) came out at 3680 ng·h/mL, the clearance worked out at 4.52 mL/min/kg, the half-life was 3.13 h and the Vd was determined as 1.13 L/kg. In addition, in data set [3] (Oral administration (10 mg/kg)), the AUC(0-t) amounted to 60800 ng·h/mL, the Cmax came out at 14800 ng/mL, the Tmax was 0.17 h and the bioavailability was 166%. The compound also had a half-life in data set [3] (Oral administration (10 mg/kg)) of 2.08 h.

On to `Cc1nc2ccc(CN3CCN(c4ccc(C(=O)NC5CC5)nc4F)CC3)cc2[nH]c1=O` [Compound 9], for which the half-life at 1 μM in data set [1] is 3.8 h. This compound also came in with a Mean tumor volume in data set [4] (setting [5]) of 212 mm^3. This compound also returned a Mean tumor volume in data set [4] (setting [6]) of 185 mm^3. Further, the “Tumor growth inhibition rate” value in data set [4] (setting [7]) is 113%. In data set [2], this compound yielded a half-life at 1 μM of 9.43 h. The IC50 in the data set on MDA-MB-436 cells worked out at 3.7 nM. In data set [3] (iv, Injection (1 mg/kg)), the AUC(0-t) turned out to be 3590 ng·h/mL, the clearance was 4.62 mL/min/kg, the half-life is 3.41 h and the Vd is 0.73 L/kg. For the same compound, in data set [3] (Oral administration (10 mg/kg)), the AUC(0-t) stood at 60800 ng·h/mL, the highest level (Cmax) was 16000 ng/mL, the Tmax came out at 0.08 h and the bioavailability worked out at 192%. The half-life in data set [3] (Oral administration (10 mg/kg)) was 1.89 h.

In data set [1], `CNC(=O)c1ccc(N2CCN(Cc3ccc4nc(C)c(=O)[nH]c4c3F)CC2)c(F)n1` [AZD9574, reference compound] came in with a half-life at 1 μM of 1.72 h. In data set [4] (setting [5]), this compound registered a Mean tumor volume of 212 mm^3. In addition, the Mean tumor volume in data set [4] (setting [6]) was 126 mm^3. In addition, in data set [4] (setting [7]), the “Tumor growth inhibition rate” value turned out to be 141%. In addition, in data set [2], the half-life at 1 μM turned out to be 2.1 h. The IC50 in the data set with MDA-MB-436 cells turned out to be 9 nM. In data set [3] (iv, Injection (1 mg/kg)), the AUC(0-t) is 2550 ng·h/mL, the clearance is 6.42 mL/min/kg, the half-life is 4.54 h and the Vd was 2.03 L/kg. Moreover, in data set [3] (Oral administration (10 mg/kg)), the AUC(0-t) is 25400 ng·h/mL, the Cmax is 5140 ng/mL, the Tmax is 0.5 h and the bioavailability was 99.5%. The half-life in data set [3] (Oral administration (10 mg/kg)) is 4.37 h.

Consider `Cc1nc2ccc(CN3CCN(c4ccc(C(=O)NC5CC5)nc4F)CC3)c(F)c2[nH]c1=O` [Compound 10], for which, in data set [1], the half-life at 1 μM amounted to 1.67 h. The compound further returned a half-life at 1 μM in data set [2] of 14.4 h. Besides, the IC50 in the data set with MDA-MB-436 cells stood at 16 nM. Moreover, in data set [3] (iv, Injection (1 mg/kg)), the AUC(0-t) amounted to 2170 ng·h/mL, the clearance was 7.5 mL/min/kg, the half-life was 5.07 h and the Vd was 2.38 L/kg. Besides, in data set [3] (Oral administration (10 mg/kg)), the AUC(0-t) worked out at 20400 ng·h/mL, the highest level (Cmax) was 4530 ng/mL, the Tmax was 0.17 h and the bioavailability is 93%. The half-life in data set [3] (Oral administration (10 mg/kg)) is 3.8 h.

For `CCc1nc2ccc(CN3CCN(c4ccc(C(=O)N[C@@H]5C[C@@H]5F)nc4F)CC3)cc2[nH]c1=O` [Compound 6], the IC50 with MDA-MB-436 cells was found to be 2.6 nM.

On to `CCc1nc2ccc(CN3CCN(c4ccc(C(=O)N[C@H]5C[C@H]5F)nc4F)CC3)cc2[nH]c1=O` [Compound 11], for which the IC50 with MDA-MB-436 cells turned out to be 1.7 nM.

The values above are taken from patent US20260265221A1, “PARP INHIBITOR, AND PREPARATION METHOD THEREFOR AND MEDICAL USE THEREOF” (WIGEN BIOMEDICINE TECHNOLOGY (SHANGHAI) CO., LTD., priority 2023, published 2026).
